Entries after “also recorded” stand apart in the source; their conditions may differ.
Experiments:
[1] = system: human ASM cells; assay: Assay of cAMP accumulation in cultured human ASM cells; type: cell-based; details: for isoproterenol-induced cAMP accumulation after 24 hr exposure to the agent: PGE2 100 nM or salmeterol 10 μM x 24 hr, no rolipram
Excerpt: Animals: Adult New Zealand White rabbits were used in this study, which was approved by the Biosafety and Animal Research Committee of the Joseph Stokes Research Institute at Children's Hospital of Philadelphia. The animals had no signs of respiratory disease for several weeks before the study, and their care and use were in accordance with the “Guide for the Care and Use of Laboratory Animals” prepared by the Institute of Laboratory Animal Resources, National Research Council. Culture and treatment of ASM cells: The human ASM cells were grown in SmBm media supplemented with 10% FBS (BioWhittaker) and maintained throughout in a humidified incubator containing 5% CO2 in air at 37° C. The experimental protocols involved growing the cells to ˜95% confluence in the above medium. […] Assay of cAMP accumulation: In initial studies, intracellular cAMP levels were determined in near confluent ASM cell cultures at varying times following treatment of ASM cells with varying concentrations of isoproterenol (0.1 to 100 μM). […]
Thereafter, in the continued presence of these treatments, cells were exposed for 5 min to isoproterenol (10 μM) at 37° C., and intracellular cAMP concentrations were determined per manufacturer's protocols using a direct cAMP Enzyme Immunoassay Kit (R&D Systems, Minneapolis, Minn.). In both cases, the cAMP measurements were expressed in units of picomoles/milligram protein.

[2] = system: rabbit ASM tissues; assay: Constrictor responsiveness to acetylcholine (ACh) in isolated rabbit ASM tissues, isometric tension in organ bath; details: for effect of pretreatment on PGE2-induced increase in constrictor responsiveness to ACh: PGE2 100 nM x 24 hr; for effect of pretreatment on salmeterol-induced increase in constrictor responsiveness to ACh: salmeterol 10 μM x 24 hr; for effect of the agent alone on constrictor responses to ACh: vehicle-exposed control tissues; for constrictor responsiveness to ACh relative to vehicle-treated controls: tissues exposed 24 hr to the agent
Excerpt: (§1) Detection of PDE4D5 mRNA transcripts: Total RNA was extracted from the cultured ASM cells using the TRIzol method (Invitrogen), and cDNAs were isolated by RT-PCR using the SuperScript First Strand Synthesis System kit from Invitrogen, with the following oligonucleotide primer sets (Integrated DNA Technologies): for PDE4D5, 5′-[…]-3′ (forward; SEQ ID NO: 2) and 5′-[…]-3′ (reverse; SEQ ID NO: 3); and for β-actin, 5′-[…]-3′ (forward; SEQ ID NO: 4) and 5′-[…]-3′ (reverse; SEQ ID NO: 5). The reaction volume was 20 μl and cycling conditions used were 35 cycles of 30 sec denaturation at 95° C., followed by 30 sec annealing at 60° C. and elongation at 72° C. for 30 sec. Ex-Tag (Takara Biotechnology) was used as DNA polymerase. […] Following protein extraction and the addition of gel-loading buffer, the extracts were loaded on a 10% SDS-PAGE gel for immunoblotting after transfer to a PVDF membrane. The membranes were then incubated overnight with monoclonal mouse anti-human primary antibodies directed against phospho-CREB and -ATF1, phospho-ERK1/2, or α-actin, and levels were detected by ECL after a 1-hr incubation with a 1:2,000 dilution of HRP-conjugated rabbit anti-mouse secondary antibody, followed by exposure to autoradiography film. The protein band intensities were quantified by densitometry. siRNA-mediated knockdown of PKA: ASM cells were seeded into 6-well plates and, at ˜40% confluency, the medium was replaced with the reduced serum-containing medium, Opti-MEM (Invitrogen). The cells were then transfected twice during a 24-hr interval with two pools of three siRNA duplexes, each pool targeted against the human PKAα or PKAγ catalytic subunits (Santa Cruz Biotechnology; sc-36240 and sc-36236, respectively), or with a non-targeted control (scrambled) siRNA duplex, using Oligofectamine (Invitrogen) as the transfection agent. The pools of siRNAs were applied to each well at a final concentration of 100 nM for each siRNA preparation. […] Transfection of ASM cells with adeno-βARK-ct: Adenovirus (adeno)-βARK-ct, an adenovirus vector encoding the βARK1 carboxyl-terminal domain which blocks Gβγ signaling (25,26), and adeno-β-gal, an adenovirus vector expressing lacZ as a negative control, were constructed using the AdenoX adenovirus construction kit (BD-Clontech). Recombinant plaques were isolated and propagated in HEK293 cells (Invitrogen), with viral purification using the cesium chloride gradient method, and viral titer detected by plaque assay. The ASM cells were transfected with either of the adenoviral vectors at a multiplicity of infection (MOI) of 100, and experiments were conducted at 24 hr following adenoviral tranfections. Pharmacodynamic studies of constrictor and relaxation responsiveness in rabbit ASM tissues: Following initial sedation and subsequent general anesthesia with intramuscular injections of xylazine (10 mg/kg) and ketamine (50 mg/kg), respectively, rabbits were sacrificed with an intravenously administered overdose of sodium pentobarbital (100 mg/kg). As described previously (16), the tracheae were excised via open thoracotomy, the loose connective tissue and epithelium were scraped and removed, and the tracheae were divided into 8 ring segments, each of 6-8 mm in length. […] After these incubations, the tissues were placed in organ baths containing modified Krebs-Ringer solution aerated with 5% CO2 in oxygen (pH of 7.35-7.40), and attached to force transducers to continuously monitor isometric tension. […] The constrictor and relaxation dose-response curves were analyzed with respect to each tissue's maximal isometric contractile force (Tmax) to ACh and maximal relaxation response (Rmax) to isoproterenol from the initial level of active cholinergic contraction. Statistical analyses: Results are expressed as mean±SE values. Comparisons between groups were made using the Student's t-test (two-tailed) or ANOVA with Tukey's post-test analysis, where appropriate.

[3] = system: rabbit ASM tissues; assay: Relaxation responsiveness to isoproterenol in isolated rabbit ASM tissues half-maximally contracted with ACh; details: for effect of pretreatment on PGE2-induced impaired relaxation to isoproterenol: PGE2 100 nM x 24 hr; for effect of pretreatment on salmeterol-induced impaired relaxation to isoproterenol: salmeterol 10 μM x 24 hr; for maximal relaxation (Rmax) response to isoproterenol: mean±SE, tissues exposed 24 hr to the agent (PGE2 100 nM; salmeterol 10 μM); for relaxation responsiveness to isoproterenol relative to vehicle-treated controls: tissues exposed 24 hr to the agent
Excerpt: as §1

[4] = system: human ASM cells; assay: Assay of cAMP PDE activity in ASM cell lysates; type: cell-based; details: for effect of pretreatment on PGE2- and forskolin-induced increases in PDE activity: PGE2 or forskolin x 24 hr (100 μM in text, 100 nM in legends); for effect of pretreatment on salmeterol- and isoproterenol-induced increase in PDE activity: salmeterol or isoproterenol 10 μM x 24 hr
[5] = system: human ASM cells; assay: Assay of cAMP PDE activity in ASM cell lysates; type: cell-based; details: for cAMP PDE (PDE4) activity relative to vehicle-treated control cells: cells exposed 24 hr to the agent; for PDE activity, fold above control: cells incubated 24 hr with the agent (PGE2 or forskolin 100 μM; salmeterol or isoproterenol 10 μM)
Description: Assay of cAMP PDE activity: Levels of cAMP PDE activity were assayed in ASM cell lysates using a colorimetric, non-radioactive enzymatic assay kit from Biomol, as per the manufacture's protocol. PDE activity was determined following exposure of ASM cells for 24 hr to either vehicle alone (control), PGE2 (100 μM), or forskolin (100 μM) in the absence and presence of pretreatment with rolipram (10 μM), cycloheximide (100 μM), actinomycin D (4 μM), or H89 (10 μM).
In each case, the measured levels of PDE activity were standardized to the protein content in the cell extracts.

[6] = system: ERK1/2; assay: Immunoblot analysis of ERK1/2 phosphorylation in ASM cells; type: cell-based, human; details: for time of peak ERK1/2 phosphorylation / ERK1/2 phosphorylation in cells treated with the agent: isoproterenol or salmeterol 10 μM; for ERK1/2 phosphorylation in cells treated with the agent: PGE2 or forskolin 100 nM
Excerpt: as §1

[7] = system: PDE4D5 mRNA; assay: Detection of PDE4D5 mRNA transcripts by RT-PCR in ASM cells; type: cell-based, human; details: for time of peak PDE4D5 mRNA induction / peak PDE4D5 mRNA expression, fold above unstimulated cells: salmeterol or isoproterenol 10 μM; for peak PDE4D5 mRNA expression, fold above unstimulated cells: densitometric analysis, 3 experiments
Excerpt: as §1

[8] = system: CREB/ATF1; assay: Immunoblot analysis of CREB/ATF1 phosphorylation in ASM cells; type: cell-based, human; details: PGE2 100 nM
Excerpt: as §1

[9] = forskolin 100 μM x 24 hr, data not shown

Row | Compound | effect of pretreatment on PGE2-induced increase in constrictor responsiveness to ACh [2] | effect of pretreatment on salmeterol-induced increase in constrictor responsiveness to ACh [2] | effect of the agent alone on constrictor responses to ACh [2] | effect of pretreatment on PGE2-induced impaired relaxation to isoproterenol [3] | effect of pretreatment on salmeterol-induced impaired relaxation to isoproterenol [3] | effect of pretreatment on PGE2- and forskolin-induced increases in PDE activity [4] | effect of pretreatment on salmeterol- and isoproterenol-induced increase in PDE activity [4] | cAMP PDE (PDE4) activity relative to vehicle-treated control cells [5] | PDE activity, fold above control [5] | isoproterenol-induced cAMP accumulation after 24 hr exposure to the agent ([1]; isoproterenol 1.0 μM, 5 min) | time of peak ERK1/2 phosphorylation ([6]; PGE2 100 nM) | ERK1/2 phosphorylation in cells treated with the agent [6] | constrictor responsiveness to ACh relative to vehicle-treated controls [2] | time of peak PDE4D5 mRNA induction ([7]; PGE2 100 nM) | peak PDE4D5 mRNA expression, fold above unstimulated cells ([7]; PGE2 100 nM) | maximal relaxation (Rmax) response to isoproterenol [3] | relaxation responsiveness to isoproterenol relative to vehicle-treated controls [3] | phosphorylation of CREB and ATF1 in cells treated with the agent ([8]; isoproterenol 10 μM) | other results
1 | COc1ccc(C2CNC(=O)C2)cc1OC1CCCC1 (stereo not shown) [rolipram] | completely abrogated; also recorded: prevents | completely abrogated; also recorded: prevents | only modestly decreased constrictor responses; also recorded: did not exhibit any significant changes; also recorded: no significant effect | completely ablated; also recorded: prevents | completely ablated; also recorded: prevents | completely abrogated; also recorded: ablated | completely abrogated; also recorded: ablated |  |  |  |  |  |  |  |  |  |  |  | isoproterenol-induced cAMP response in PGE2-exposed cells pretreated with the agent ([1]; PGE2 100 nM x 24 hr, rolipram 10 μM): preserved; also recorded: unaltered; isoproterenol-induced cAMP accumulation in cells pretreated with the agent ([1]; rolipram 10 μM, isoproterenol 1.0 μM, 5 min): increased isoproterenol-induced cAMP accumulation; also recorded: slightly increased; isoproterenol-induced cAMP response in salmeterol-exposed cells co-treated with the agent ([1]; salmeterol 10 μM x 24 hr, rolipram 10 μM): largely preserved; also recorded: unaltered; effect of pretreatment on forskolin-induced increase in constrictor responsiveness to ACh [2, 9]: completely abrogated; effect of pretreatment on forskolin-induced impaired relaxation to isoproterenol [3, 9]: completely abrogated
2 | O=S(=O)(NCCNC/C=C/c1ccc(Br)cc1)c1cccc2cnccc12 [H89] | abrogated | completely abrogated; also recorded: prevents | no significant effect; also recorded: did not exhibit any significant changes | abrogated | completely ablated; also recorded: prevents | abrogated; also recorded: ablated | prevented; also recorded: ablated |  |  |  |  |  |  |  |  |  |  |  | effect of the agent alone on basal PDE activity ([5]; no cAMP-elevating agent): no significant change; also recorded: neither H89 nor U0126 alone had a significant effect; effect on PGE2-induced phosphorylation of ERK1/2 ([6]; PGE2 100 nM, 30 min): abrogated; also recorded: ablated; effect of pretreatment on PGE2-induced upregulated PDE4D5 mRNA expression ([7]; PGE2 100 nM, 6 hr): largely prevented; also recorded: ablated; effect of pretreatment on β2AR agonist (isoproterenol)-induced upregulated PDE4D5 mRNA expression ([7]; isoproterenol 10 μM, 6 hr): largely prevented; also recorded: ablated; effect of the agent alone on relaxation responses to isoproterenol ([3]; vehicle-exposed control tissues): no significant effect; also recorded: did not exhibit any significant changes; effect on PGE2-induced phosphorylation of CREB/ATF1 ([8]; 30 min): abrogated; also recorded: ablated
3 | CCCCC[C@H](O)/C=C/[C@H]1[C@H](O)CC(=O)[C@@H]1C/C=C\CCCC(=O)O [PGE2, prostaglandin (PG)E2] |  |  |  |  |  |  |  | significantly increased; also recorded: significant increase | 3.74 fold | significantly reduced cAMP responses; also recorded: significantly attenuated | 30 min | increased expression of phosphorylated ERK1/2; also recorded: significantly increased | significantly increased constrictor responses; also recorded: increased constrictor responsiveness | 6 h | 5.9 fold | 31.4±5.4% | impaired relaxation responses; also recorded: impaired ASM relaxation | transiently increased phosphorylation; also recorded: transiently upregulated expression | increase in ERK1/2 phosphorylation, fold above control (vehicle-treated) cells ([6]; densitometric ratios, mean±SE, PGE2 30 min, isoproterenol 20 min): 3.76±0.64 fold; time of peak CREB/ATF1 phosphorylation ([8]; isoproterenol 10 μM): 30 min
4 | OCc1cc(C(O)CNCCCCCCOCCCCc2ccccc2)ccc1O (stereo not shown) [salmeterol] |  |  |  |  |  |  |  | significantly increased | ~2 fold | significantly reduced cAMP responses; also recorded: markedly attenuated | 20 min | increased phosphorylation of ERK1/2; also recorded: enhanced ERK1/2 phosphorylation | significantly increased constrictor responses | 6 h | 7.3 fold | 33.39±5.1% | impaired relaxation responses | Qualitatively similar temporal changes | 
